“Also recorded” adds a separate entry of the source.
Key:
[1] = tested on: RNase mixture (RNase A, RNase 1, RNase T1); assay: Non-isotopic RNase inactivation assay (mouse total RNA, agarose gel); type: biochemical, human, E. coli and a fungus; design: key to RNase Inactivation Water / RNase Inactivation Buffer A / RNase Inactivation Buffer B / RNase Inactivation Buffer C: (+) indicates that the RNase mixture was inactivated; (−) indicates that the RNase mixture was not activated as determined by the non-isotopic assay; settings: for RNase Inactivation Buffer B: 50 mM Tris-HCl (pH 7.0); for RNase Inactivation Buffer C: 30 mM NaCl, 3 mM sodium citrate (pH 7.5)
From the text: The inventors routinely perform assays on RNA designed to assess RNase activity in a sample. Two different assays are typically used for the detection of ribonuclease activity, non-isotopic and isotopic. […] In both assays, the inactivation process is typically performed on a mixture of three different ribonucleases: RNase A, RNase 1, and RNase T1. Each ribonuclease is purified from a different species: […], E. coli and a fungus, respectively. The three RNases are very different from each other in their origin, substrate specificity and protein sequence. In this way, the inactivation process can test three completely different but well characterized ribonucleases. The standard stock RNase mixture employed in the following examples is prepared by combining 1 μl RNase 1 (100 U/μl; Ambion), 1 μl RNase cocktail (RNase A, 0.5 U/μl; RNase T1, 20 U/μl, Ambion) and 98 μl water. The non-isotopic assay uses total RNA isolated from mouse as the substrate for the RNase mixture. […] A quantity of 4 μg of total RNA isolated from mouse liver or brain was dissolved in an aqueous solution, usually water or 1 mM sodium citrate (pH 6.6). The treated ribonuclease sample was added to the total RNA and then incubated at 37° C. for 1 or 16 hours, depending on the sensitivity desired for the assay. After incubation, the RNA was fractionated in a formaldehyde 1% agarose gel. The RNA was detected by staining with ethidium bromide and then illuminating the gel with ultraviolet light. The RNA fluoresces in the gel. Untreated total RNA was also fractionated as a control with the test samples for comparative purposes. […] Intact total RNA has two major bands produced by the 28S and 18S ribosomal RNA. […] The RNase cocktail was made to various concentrations in different buffers in different DTT concentrations and incubated at 37° C. or 60° C. for 20 minutes. Total mouse RNA was added to the treated RNase mixture and incubated at 37° C. for one hour, fractionated in a formaldehyde denaturing 1% agarose gel and the RNA visualized by ethidium bromide staining and UV fluorescence.

[2] = target: T1, MMLV reverse transcriptase (Moloney murine leukemia virus, UniProt P03355); assay: Reverse transcription reaction (RETROscript kit), dCTP[α-32P] incorporation; type: biochemical; settings: 20 mM reducing reagent
T1 construct: purchased Ambion, Inc
Procedure: (§1) FIG. 2. […] Reverse transcriptions were performed using the RETROscript™ kit (Ambion, Inc.). Mouse total RNA in DEPC-treated water was reverse transcribed with either MMLV or AMV reverse transcriptase in the presence or absence of 20 mM DTT. dCTP[α^32P] was included in the reactions to measure the efficiency of reverse transcription. Following incubation at 42° C. for 1 h, 5 μl of each reaction was subjected to TCA precipitation to measure the amount of dCTP[α^32P] incorporated into cDNA by reverse transcription.
(§2) The reverse transcription reactions were performed using the RETROscript™ kit (Ambion, Inc.). The following were assembled with or without 20 mM of the reducing reagents in a final volume of 19 μl: dNTPs (0.5 mM each), oligo dT (5 μM), 0.4 μl dCTP[α-^32p] (3000 Ci/mmol), 10 mM Tris-HCl (pH 8.3): 50 mM KCl: 1.5 mM MgCl2, mouse brain total RNA (4 μg). The reaction mixtures were incubated at 65° C. for 10 minutes. 1 μl (100 units) of AMV or MMLV reverse transcriptase were added and then the reactions were incubated at 42° C. for 1 hour. Reverse transcription by either enzyme was not inhibited by DTT (FIG. 2) or by DTE or β-mercaptoethanol.

[3] = tested on: AMV reverse transcriptase; assay: as above; type: biochemical; settings: 20 mM reducing reagent
Procedure: as §1, §2

[4] = RNase Mix 64 ng/ml, DTT 5 mM, 60° C. for 20 minutes
[5] = RNase Mix 64 ng/ml, DTT 10 mM, 37° C. for 20 minutes
[6] = RNase Mix 64 ng/ml, DTT 10 mM, 60° C. for 20 minutes
[7] = RNase Mix 95 ng/ml, DTT 5 mM, 60° C. for 20 minutes
[8] = RNase Mix 95 ng/ml, DTT 10 mM, 37° C. for 20 minutes
[9] = RNase Mix 95 ng/ml, DTT 10 mM, 60° C. for 20 minutes
[10] = RNase Mix 191 ng/ml, DTT 5 mM, 60° C. for 20 minutes
[11] = RNase Mix 191 ng/ml, DTT 10 mM, 37° C. for 20 minutes
[12] = RNase Mix 191 ng/ml, DTT 10 mM, 60° C. for 20 minutes
[13] = RNase Mix 191 ng/ml, DTT 20 mM, 60° C. for 20 minutes
[14] = RNase Mix 954 ng/ml, DTT 5 mM, 60° C. for 20 minutes
[15] = RNase Mix 954 ng/ml, DTT 10 mM, 37° C. for 20 minutes
[16] = RNase Mix 954 ng/ml, DTT 10 mM, 60° C. for 20 minutes
[17] = RNase Mix 954 ng/ml, DTT 20 mM, 60° C. for 20 minutes

`O[C@H](CS)[C@H](O)CS` [DTT, dithiothreitol] was tested, and the “concentration of RNase mixture completely inactivated” value ([1]; 20 mM DTT, 1 mM sodium citrate (pH 6.4), 60° C. for 20 minutes, non-isotopic assay, 1 hour incubation) was “up to 200 ng/ml”, the “inactivation of sequentially added RNases” value ([1]; 20 mM DTT, 1 mM sodium citrate (pH 6.4), RNases 200 ng/ml per addition, heating at 60° C. for 20 minutes after each addition) was “completely inactivated” and the “concentration of RNase mixture completely inactivated in the presence of RNA” value ([1]; 20 mM DTT, mouse liver total RNA 4 μg/10 μl, 1 mM sodium citrate (pH 6.4), 60° C. for 20 minutes) was “up to 3.125 ng/ml”. For the same compound, the “effect of sequentially added RNases without reheating” value ([1]; 20 mM DTT, same buffer, not subjected to the 60° C. incubation) was “complete RNA degradation”, the “60° C. incubation time required for inactivation” value ([1]; RNase 200 ng/ml, 20 mM DTT, 60° C.) was “at least 4 minutes” and the “RNase Inactivation Buffer A” value ([1]; RNase Mix 64 ng/ml, DTT 5 mM, 60° C. for 20 minutes, 1 mM sodium citrate (pH 6.4)) was “+”. The “RNase Inactivation Buffer B” value [1, 4] was “+”, the “RNase Inactivation Buffer C” value [1, 4] was “+” and the “RNase Inactivation Water” value [1, 4] was “+”. For the same compound, the “RNase Inactivation Buffer A” value ([1]; RNase Mix 64 ng/ml, DTT 10 mM, 37° C. for 20 minutes, 1 mM sodium citrate (pH 6.4)) was “+”, the “RNase Inactivation Buffer B” value [1, 5] was “+” and the “RNase Inactivation Buffer C” value [1, 5] was “+”. The “RNase Inactivation Water” value [1, 5] was “+”, the “RNase Inactivation Buffer A” value ([1]; RNase Mix 64 ng/ml, DTT 10 mM, 60° C. for 20 minutes, 1 mM sodium citrate (pH 6.4)) was “+” and the “RNase Inactivation Buffer B” value [1, 6] was “+”. The “RNase Inactivation Buffer C” value [1, 6] was “+”, the “RNase Inactivation Water” value [1, 6] was “+” and the “RNase Inactivation Buffer A” value ([1]; RNase Mix 95 ng/ml, DTT 5 mM, 60° C. for 20 minutes, 1 mM sodium citrate (pH 6.4)) was “−”. The “RNase Inactivation Buffer B” value [1, 7] was “−”, the “RNase Inactivation Buffer C” value [1, 7] was “−” and the “RNase Inactivation Water” value [1, 7] was “−”. The “RNase Inactivation Buffer A” value ([1]; RNase Mix 95 ng/ml, DTT 10 mM, 37° C. for 20 minutes, 1 mM sodium citrate (pH 6.4)) was “−”, the “RNase Inactivation Buffer B” value [1, 8] was “−” and the “RNase Inactivation Buffer C” value [1, 8] was “−”. The “RNase Inactivation Water” value [1, 8] was “−”, the “RNase Inactivation Buffer A” value ([1]; RNase Mix 95 ng/ml, DTT 10 mM, 60° C. for 20 minutes, 1 mM sodium citrate (pH 6.4)) was “+” and the “RNase Inactivation Buffer B” value [1, 9] was “+”. The “RNase Inactivation Buffer C” value [1, 9] was “+”, the “RNase Inactivation Water” value [1, 9] was “+” and the “RNase Inactivation Buffer A” value ([1]; RNase Mix 191 ng/ml, DTT 5 mM, 60° C. for 20 minutes, 1 mM sodium citrate (pH 6.4)) was “−”. For the same compound, the “RNase Inactivation Buffer B” value [1, 10] was “−”, the “RNase Inactivation Buffer C” value [1, 10] was “−” and the “RNase Inactivation Water” value [1, 10] was “−”. For the same compound, the “RNase Inactivation Buffer A” value ([1]; RNase Mix 191 ng/ml, DTT 10 mM, 37° C. for 20 minutes, 1 mM sodium citrate (pH 6.4)) was “−”, the “RNase Inactivation Buffer B” value [1, 11] was “−” and the “RNase Inactivation Buffer C” value [1, 11] was “−”. For the same compound, the “RNase Inactivation Water” value [1, 11] was “−”, the “RNase Inactivation Buffer A” value ([1]; RNase Mix 191 ng/ml, DTT 10 mM, 60° C. for 20 minutes, 1 mM sodium citrate (pH 6.4)) was “+” and the “RNase Inactivation Buffer B” value [1, 12] was “+”. The “RNase Inactivation Buffer C” value [1, 12] was “+”, the “RNase Inactivation Water” value [1, 12] was “+” and the “RNase Inactivation Buffer A” value ([1]; RNase Mix 191 ng/ml, DTT 20 mM, 60° C. for 20 minutes, 1 mM sodium citrate (pH 6.4)) was “+”. For the same compound, the “RNase Inactivation Buffer B” value [1, 13] was “+”, the “RNase Inactivation Buffer C” value [1, 13] was “+” and the “RNase Inactivation Water” value [1, 13] was “+”. For the same compound, the “RNase Inactivation Buffer A” value ([1]; RNase Mix 954 ng/ml, DTT 5 mM, 60° C. for 20 minutes, 1 mM sodium citrate (pH 6.4)) was “−”, the “RNase Inactivation Buffer B” value [1, 14] was “−” and the “RNase Inactivation Buffer C” value [1, 14] was “−”. The “RNase Inactivation Water” value [1, 14] was “−”, the “RNase Inactivation Buffer A” value ([1]; RNase Mix 954 ng/ml, DTT 10 mM, 37° C. for 20 minutes, 1 mM sodium citrate (pH 6.4)) was “−” and the “RNase Inactivation Buffer B” value [1, 15] was “−”. For the same compound, the “RNase Inactivation Buffer C” value [1, 15] was “−”, the “RNase Inactivation Water” value [1, 15] was “−” and the “RNase Inactivation Buffer A” value ([1]; RNase Mix 954 ng/ml, DTT 10 mM, 60° C. for 20 minutes, 1 mM sodium citrate (pH 6.4)) was “−”. For the same compound, the “RNase Inactivation Buffer B” value [1, 16] was “−”, the “RNase Inactivation Buffer C” value [1, 16] was “−” and the “RNase Inactivation Water” value [1, 16] was “−”. For the same compound, the “RNase Inactivation Buffer A” value ([1]; RNase Mix 954 ng/ml, DTT 20 mM, 60° C. for 20 minutes, 1 mM sodium citrate (pH 6.4)) was “+”, the “RNase Inactivation Buffer B” value [1, 17] was “+” and the “RNase Inactivation Buffer C” value [1, 17] was “+”. The “RNase Inactivation Water” value [1, 17] was “+”, the RNase mixture inactivation ([1]; RNase mixture 64 ng/ml, 10 mM DTT, 37° C. for 20 minutes) was “inactivated” and the RNase activity inactivated ([1]; RNase mixture 200 ng/ml, 20 mM DTT, 60° C. for 1 minute) was “approximately 50%”. The RNase activity inactivated ([1]; RNase mixture 200 ng/ml, 20 mM DTT, 60° C. for 2 minutes) was ~80%, the RNase activity inactivated ([1]; RNase mixture 200 ng/ml, 20 mM DTT, 60° C. for 4 minutes) was ~100% and the “RNase inactivation in different buffers and solutions” value ([1]; RNase mixture 200 ng/ml, 20 mM DTT, 60° C. for 20 minutes, 17 solutions, non-isotopic) was “inactivated RNase activity in all of buffers and solutions tested”. The RNase mixture inactivation ([1]; RNase mixture 200 ng/ml, 20 mM DTT, 60° C. for less than 30 seconds) was “did not inactivate”, the RNase mixture inactivation ([1]; RNase mixture 954 ng/ml, 20 mM DTT, 60° C. for 20 minutes) was “inactivated” and the “RNase activity on retest after storage” value ([1]; solutions with inactivated RNases stored at 4° C. for one month) was “none of the solutions had detectable RNase activity”. The “inhibition of reverse transcription by MMLV reverse transcriptase” value [2] was “does not inhibit; also recorded: not inhibited” and the “inhibition of reverse transcription by AMV reverse transcriptase” value [3] was “does not inhibit; also recorded: not inhibited”.

From US6825340B2, “Methods and reagents for inactivating ribonucleases” (Ambion, Inc., priority 1998, dated 2004)
